Reference: paper PMC7340849 (Bioorganic & medicinal chemistry letters, 2020)

Experiments:
D1R [1] = molecular target: T1, D1R (Homo sapiens, UniProt P21728); assay: Binding affinity at dopamine D1R, [3H]SCH23390 radioligand; settings: for selectivity D1R over D5R: from Ki values
D5R = D5R (Homo sapiens, UniProt P21918); assay: Binding affinity at dopamine D5R, [3H]SCH23390 radioligand; settings: from Ki values
D1R [2] = molecular target: T1, D1R; assay: D1R agonist/antagonist assays measuring cAMP modulation; settings: agonist mode

T1 sequence (P21728 whole entry): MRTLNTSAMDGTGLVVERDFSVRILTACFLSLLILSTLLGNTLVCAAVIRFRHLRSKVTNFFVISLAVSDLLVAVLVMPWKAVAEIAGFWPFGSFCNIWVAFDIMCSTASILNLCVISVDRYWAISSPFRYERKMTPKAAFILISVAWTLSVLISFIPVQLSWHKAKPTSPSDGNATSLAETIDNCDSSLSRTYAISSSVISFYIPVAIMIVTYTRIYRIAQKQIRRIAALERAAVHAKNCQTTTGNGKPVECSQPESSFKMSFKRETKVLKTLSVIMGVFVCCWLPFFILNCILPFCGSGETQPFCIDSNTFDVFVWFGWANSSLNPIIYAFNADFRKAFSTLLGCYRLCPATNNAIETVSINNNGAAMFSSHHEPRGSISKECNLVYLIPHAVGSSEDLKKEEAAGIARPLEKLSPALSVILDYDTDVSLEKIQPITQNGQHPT
D5R, sequence (P21918 whole entry): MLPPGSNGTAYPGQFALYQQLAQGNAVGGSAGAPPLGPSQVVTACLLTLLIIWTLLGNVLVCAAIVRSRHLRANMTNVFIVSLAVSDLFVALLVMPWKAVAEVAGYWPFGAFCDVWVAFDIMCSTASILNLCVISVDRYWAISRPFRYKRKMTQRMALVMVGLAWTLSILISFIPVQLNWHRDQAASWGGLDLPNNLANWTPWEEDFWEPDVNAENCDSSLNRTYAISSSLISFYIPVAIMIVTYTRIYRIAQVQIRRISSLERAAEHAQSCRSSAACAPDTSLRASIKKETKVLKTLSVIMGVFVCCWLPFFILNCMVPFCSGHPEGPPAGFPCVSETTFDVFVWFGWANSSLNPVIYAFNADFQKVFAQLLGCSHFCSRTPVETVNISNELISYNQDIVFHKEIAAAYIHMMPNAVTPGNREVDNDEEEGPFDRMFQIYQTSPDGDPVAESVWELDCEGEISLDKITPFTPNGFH

Structure (SMILES)	selectivity D1R over D5R (D1R [1])	further results
COc1cc2c(cc1O)C(c1ccccc1)CNCC2 (stereo not drawn) [Compound 6a]	up to 3 fold	–
COc1cc2c(cc1O)C(c1ccccc1Cl)CNCC2 (stereo not drawn) [Compound 6b]	up to 3 fold	–
COc1cc2c(cc1O)C(c1c(Cl)cccc1Cl)CNCC2 (stereo not drawn) [Compound 6c]	–	selectivity D5R over D1R (D5R): 3 fold
COc1cc2c(cc1O)C(c1ccccc1Br)CNCC2 (stereo not drawn) [Compound 6d]	up to 3 fold	–
Oc1cc2c(cc1O)C(c1ccccc1Br)CNCC2 (stereo not drawn) [Compound 7]	–	increase in D1R affinity versus C7 methoxy analog 6d (D1R [1]; catechol 7 compared with 6d): roughly 3 fold
COc1cc2c(cc1O)C(c1ccccc1Cl)CN(C)CC2 (stereo not drawn) [Compound 10a]	–	agonist activity (D1R [2]): No agonist activity was detected
